Experimental data taken from US9265253B2, “Use of macrocyclic picolinamides as fungicides” (DOW AGROSCIENCES LLC, priority 2013, dated 2016).
Read-outs that look alike come from different tables or passages of the source.

Legend:
[1] = system: Mycosphaerella graminicola; Anamorph: Septoria tritici; test: Leaf Blotch of Wheat (SEPTTR) disease control; assay type: in vivo; conditions: Zymoseptoria tritici
Method: (§1) Technical grades of materials were dissolved in acetone, which were then mixed with nine volumes of water containing 110 ppm Triton X-100. The fungicide solutions were applied onto wheat seedlings using an automated booth sprayer to run-off. All sprayed plants were allowed to air dry prior to further handling. All fungicides were evaluated using the aforementioned method for their activity vs. all target diseases. Wheat leaf blotch and brown rust activity were also evaluated using track spray applications, in which case the fungicides were formulated as EC formulations, containing 0.1% Trycol 5941 in the spray solutions. Wheat plants (variety Yuma) were grown from seed in a greenhouse in 50% mineral soil/50% soil-less Metro mix until the first leaf was fully emerged, with 7-10 seedlings per pot. These plants were inoculated with an aqueous spore suspension of Septoria tritici either prior to or after fungicide treatments. After inoculation the plants were kept in 100% relative humidity (one day in a dark dew chamber followed by two to three days in a lighted dew chamber at 20° C.) to permit spores to germinate and infect the leaf. The plants were then transferred to a greenhouse set at 20° C. for disease to develop. When disease symptoms were fully expressed on the 1st leaves of untreated plants, infection levels were assessed on a scale of 0 to 100 percent disease severity. Percent disease control was calculated using the ratio of disease severity on treated plants relative to untreated plants.

[2] = system: Puccinia triticina; Synonym: Puccinia recondite f. Sp. Tritici; test: Wheat Brown Rust (PUCCRT) disease control; assay type: in vivo; conditions: Puccinia triticina, topical
Method: as §1, with “plants. Wheat plants (variety Yuma) were grown from seed in a greenhouse in 50% mineral soil/50% soil-less Metro mix until the first leaf was fully emerged, with 7-10 seedlings per pot. These plants were inoculated with an aqueous spore suspension of Puccinia triticina either prior to or after fungicide treatments. After inoculation the plants were kept in a dark dew room at 22° C. with 100% relative humidity overnight to permit spores to germinate and infect the leaf. The plants were then transferred to a greenhouse set at 24° C. for disease to develop. Fungicide formulation, application and disease assessment followed the procedures as described in the Example A.” for “plants.”

[3] = 24 h, 1 Day Protectant, rate 100 ppm, read-out: SEPTTR 1 DP disease control
[4] = 24 h, 1 Day Protectant, rate 121.5 g/H, read-out: SEPTTR 1 DP disease control
[5] = 72 h, 3 Day Curative, rate 100 ppm, read-out: SEPTTR 3 DC disease control
[6] = 72 h, 3 Day Curative, rate 121.5 g/H, read-out: SEPTTR 3 DC disease control
[7] = 24 h, 1 Day Protectant, rate 121.5 g/H, read-out: PUCCRT 1 DP disease control
[8] = 72 h, 3 Day Curative, rate 100 ppm, read-out: PUCCRT 3 DC disease control
[9] = 72 h, 3 Day Curative, rate 121.5 g/H, read-out: PUCCRT 3 DC disease control
[10] = 24 h, 1 Day Protectant, rate 100 ppm, read-out: PUCCRT 1 DP disease control

COc1ccnc(C(=O)N[C@H]2CCC[C@H](Cc3ccc(F)cc3)[C@@H](OC(=O)C(C)C)[C@H](C)OC2=O)c1OCOC(C)=O [Compound F105] showed a pest or weed control at 100 ppm [1, 3] of 80 to 100%, a pest or weed control at 121.5 g/ha [1, 4] of 80 to 100% and a pest or weed control at 100 ppm [1, 5] of 80 to 100%. For the same compound, the pest or weed control at 121.5 g/ha [1, 6] was 80 to 100%, the pest or weed control at 121.5 g/ha [2, 7] was 80 to 100% and the pest or weed control at 100 ppm [2, 8] was 80 to 100%. For the same compound, the pest or weed control at 121.5 g/ha [2, 9] was 80 to 100%.

For CCOCC(=O)OCOc1c(OC)ccnc1C(=O)N[C@H]1CCC[C@H](Cc2ccc(F)cc2)[C@@H](Oc2ccccc2)[C@H](C)OC1=O [Compound F165], the pest or weed control at 100 ppm [1, 3] was 80 to 100%, the pest or weed control at 121.5 g/ha [1, 4] was 80 to 100% and the pest or weed control at 100 ppm [1, 5] was 80 to 100%. The pest or weed control at 121.5 g/ha [1, 6] was 80 to 100%, the pest or weed control at 100 ppm [2, 10] was 80 to 100% and the pest or weed control at 121.5 g/ha [2, 7] was 80 to 100%. The pest or weed control at 100 ppm [2, 8] was 80 to 100% and the pest or weed control at 121.5 g/ha [2, 9] was 0 to 80%.

For COc1ccnc(C(=O)N[C@H]2CCC[C@H](CCC(C)C)[C@@H](OCCCC(F)(F)F)[C@H](C)OC2=O)c1OC(C)=O [Compound F65], the pest or weed control at 100 ppm [1, 3] was 80 to 100%, the pest or weed control at 121.5 g/ha [1, 4] was 80 to 100% and the pest or weed control at 100 ppm [1, 5] was 80 to 100%. The pest or weed control at 121.5 g/ha [1, 6] was 80 to 100%, the pest or weed control at 100 ppm [2, 10] was 80 to 100% and the pest or weed control at 121.5 g/ha [2, 7] was 80 to 100%. The pest or weed control at 100 ppm [2, 8] was 80 to 100% and the pest or weed control at 121.5 g/ha [2, 9] was 0 to 80%.

In the case of COc1ccnc(C(=O)N[C@H]2CCC[C@H](Cc3ccccc3)[C@@H](O)[C@H](C)OC2=O)c1O [Compound F40], the pest or weed control at 100 ppm [1, 3] is reported as 0 to 80%, the pest or weed control at 100 ppm [1, 5] is reported as 0 to 80% and the pest or weed control at 100 ppm [2, 10] is reported as 80 to 100%. For the same compound, the pest or weed control at 100 ppm [2, 8] was 0 to 80%.

Compound COc1ccnc(C(=O)N[C@H]2CCC[C@H](CCOc3ccccc3)[C@@H](OCC3CC3)[C@H](C)OC2=O)c1O [Compound F57] has a pest or weed control at 100 ppm [1, 3] of 80 to 100%, a pest or weed control at 100 ppm [1, 5] of 0 to 80% and a pest or weed control at 100 ppm [2, 10] of 80 to 100%. For the same compound, the pest or weed control at 100 ppm [2, 8] was 80 to 100%.

COc1ccnc(C(=O)N[C@H]2CCC[C@H](CCOCC3CC3)[C@@H](OCC3CC3)[C@H](C)OC2=O)c1OC(=O)C1CC1 [Compound F196] showed a pest or weed control at 100 ppm ([1]; 24 h, Wheat Leaf Blotch, 1 Day Protectant, rate 100 ppm (high volume application), read-out: Disease control SEPTTR 1 DP) of 80 to 100%, a pest or weed control at 121.5 g/ha ([1]; 24 h, Wheat Leaf Blotch, 1 Day Protectant, rate 121.5 g/H (low volume application), read-out: Disease control SEPTTR 1 DP) of 0 to 80% and a pest or weed control at 100 ppm ([1]; 72 h, Wheat Leaf Blotch, 3 Day Curative, rate 100 ppm (high volume application), read-out: Disease control SEPTTR 3 DC) of 0 to 80%. It also gave a pest or weed control at 121.5 g/ha ([1]; 72 h, Wheat Leaf Blotch, 3 Day Curative, rate 121.5 g/H (low volume application), read-out: Disease control SEPTTR 3 DC) of 0 to 80%, a pest or weed control at 100 ppm ([2]; 24 h, Wheat Brown Rust, 1 Day Protectant, rate 100 ppm (high volume application), read-out: Disease control PUCCRT 1 DP) of 80 to 100% and a pest or weed control at 121.5 g/ha ([2]; 24 h, Wheat Brown Rust, 1 Day Protectant, rate 121.5 g/H (low volume application), read-out: Disease control PUCCRT 1 DP) of 80 to 100%. It also gave a pest or weed control at 100 ppm ([2]; 72 h, Wheat Brown Rust, 3 Day Curative, rate 100 ppm (high volume application), read-out: Disease control PUCCRT 3 DC) of 80 to 100% and a pest or weed control at 121.5 g/ha ([2]; 72 h, Wheat Brown Rust, 3 Day Curative, rate 121.5 g/H (low volume application), read-out: Disease control PUCCRT 3 DC) of 80 to 100%.

Compound COc1ccnc(C(=O)N[C@H]2CCC[C@H](CC3CCCC3)[C@@H](OCC3CC3)[C@H](C)OC2=O)c1OC(C)=O [Compound F73] has a pest or weed control at 100 ppm [1, 3] of 80 to 100%, a pest or weed control at 121.5 g/ha [1, 4] of 80 to 100% and a pest or weed control at 100 ppm [1, 5] of 80 to 100%. The pest or weed control at 121.5 g/ha [1, 6] was 80 to 100%, the pest or weed control at 100 ppm [2, 10] was 80 to 100% and the pest or weed control at 121.5 g/ha [2, 7] was 80 to 100%. The pest or weed control at 100 ppm [2, 8] was 80 to 100% and the pest or weed control at 121.5 g/ha [2, 9] was 80 to 100%.

COc1ccnc(C(=O)N[C@H]2CCC[C@H](CCC(C)C)[C@@H](OCC(C)C)[C@H](C)OC2=O)c1OCOC(C)=O [Compound F90] was tested, and the pest or weed control at 100 ppm [1, 3] was 80 to 100%, the pest or weed control at 121.5 g/ha [1, 4] was 80 to 100% and the pest or weed control at 100 ppm [1, 5] was 80 to 100%. The pest or weed control at 121.5 g/ha [1, 6] was 80 to 100%, the pest or weed control at 100 ppm [2, 10] was 80 to 100% and the pest or weed control at 121.5 g/ha [2, 7] was 80 to 100%. It also gave a pest or weed control at 100 ppm [2, 8] of 80 to 100% and a pest or weed control at 121.5 g/ha [2, 9] of 80 to 100%.

In the case of COc1ccnc(C(=O)N[C@H]2CCC[C@H](CC3CCCC3)[C@@H](OCC(C)C)[C@H](C)OC2=O)c1O [Compound F37], the pest or weed control at 100 ppm [1, 3] is reported as 80 to 100%, the pest or weed control at 100 ppm [2, 10] is reported as 0 to 80% and the pest or weed control at 100 ppm [2, 8] is reported as 0 to 80%.
